Experimental data: publication PMC2551583, “Optimizing bioavailability of oral administration of small peptides through pharmacokinetic and pharmacodynamic parameters: The effect of water and timing of meal intake on oral delivery of Salmon Calcitonin” (BMC Clinical Pharmacology, 2008)

Experiment: Plasma sCT pharmacokinetics after a single dose, phase I crossover study
Type: in vivo, healthy postmenopausal women
Description: The study was a randomized, partially-blind, placebo-controlled, single dose, exploratory crossover study to assess the PK and PD of 0.8 mg SMC021 in healthy postmenopausal women when taken in the morning with different volumes of water (50 or 200 ml) and at different times before a meal (10, 30, or 60 minutes). Subjects were blinded to treatment with SMC021 and placebo, but were not blinded to water volume intake and pre-meal dosing time. The PK and PD profiles of Miacalcic® 200 IU NS were additionally assessed in an open-label manner in a small subset of subjects.
Females fulfilling the inclusion criteria of being generally healthy ambulatory female volunteers, aged between 40–70 years and having passed a natural or surgically-induced menopause at least 5 years before entering the study and being without diseases or medications known to affect bone metabolism were allowed to participate. The study was of a 5-period, 10-treatment, 56-sequence crossover design. Subjects were randomly allocated to a sequence. The study contained 10 possible treatments, comprising a combination of study medication of SMC021, placebo, and Miacalcic® NS), water volume given with the tablet (50/200 ml water, and dosing time to meal (10, 30 or 60 minutes pre-meal) as outlined in Table 1. To reduce the burden of treatment to the subjects, an incomplete cross-over design was used. […]
The concentration of plasma sCT was measured by as chemiluminescence-based assay that previously have been described. Values measured below the lower limit of quantification of 2.5 pg/ml was assigned the value of 2.5 pg/ml. […] The lower limit of quantification (LLOQ) was 2.5 pg/mL. The quality control (QC) samples, ranging from 2.5 pg/mL to 700 pg/mL, were prepared daily and measured in 3 to 5 replicates. The overall accuracy and precision (CV) of QC samples, measured on 11 different days was 101.3% and 10.1% for 2.5 pg/mL concentration and 94.3% and 6.0% for 700 pg/mL concentration, respectively. […]

## salmon calcitonin [sCT]
Minimal if any effect of water and meal time
  time to maximum plasma sCT concentration after drug intake: approximately 15 minutes
Oral 0.8 mg with 50 ml water vs 200 IU nasal spray
  fold sCT AUC0–4 with 50 ml of water versus nasal calcitonin: 4 fold
Oral 0.8 mg, Cmax and AUC0–4, irrespective of meal timing (10, 30, 60 min)
  fold higher absorption of sCT with 50 ml as compared with 200 ml of water: two-fold increase
